{"source": "patent US12233129B2", "about": "“Methods and compositions for the treatment of cancer” (priority 2019, dated 2025)", "type_in_all_cases": "cell-based, human", "key": {"[1]": {"system": "UBXN2A promoter", "experiment": "UBXN2A promoter luciferase high-throughput drug screen in HCT-116 cells", "experimental": "Our in vivo results encouraged us to screen for compounds that can enhance expression of UBXN2A. Using the UBXN2A promoter upstream of a luciferase construct that was transiently transfected to HCT-116 cells, we performed a high-throughput drug screen with 1800 FDA approved drugs, synthetic compounds, and natural products. Forty-eight hours after transfection, cells were treated with compounds for 24 hours in triplicate (FIG. 16A). […] We looked at protein expression of UBXN2A as well as P47 (another member of the UBXD family) to confirm the selectivity of VH as a selective enhancer of UBXN2A protein in cells. […] We observed a different level of VH-dependent UBXN2A induction in different segments of the gastrointestinal system (esophagus to rectum; data not shown).\nA cell-based screen was conducted in search of compounds that induce the expression of the UBXN2A gene. The 3.9K base of DNA upstream from the UBXN2A gene on human chromosome 2, including endogenous promoters and necessary enhancers as well as untranslated exon 1, was cloned into MCS-mGL.1, a Gaussia luciferase vector, and transiently transfected into HCT-116 colon cancer cells, with empty MCS-mGL.1 for background expression. […] A glow luciferase activity assay was conducted in triplicate followed by semi-quantitative RT-PCR and WB analysis for UBXN2A, p47 (negative control), or GAPDH± Veratrine or its purified form VTD. […]"}, "[2]": {"system": "HCT-116", "settings": "10 days", "experimental": "(§1) Because colon cancer cells develop resistance to chemotherapy after an initial response, we decided to investigate whether VTD can potentiate the cytotoxic effect of 5-FU when cells receiving long-term therapy mimicking the in vivo therapy. Cells were treated with VTD for 10 days.\n(§2) Based on the significant effect of long-term exposure in LoVo and U2OS, we hypothesized that VTD could be a potential complementary strategy alongside 5-FU, an effective drug with a high rate of resistant events in colon tumors. To answer this question, we first determined the minimum concentration of 5-FU that has no effect or a very mild effect on cell viability after 10 days' exposure in three cell lines HCT-116, LoVo, and U2OS (data not shown). We performed the 10 days' treatment using a combination of a low dose of VTD (50 μM or 100 μM) plus a suboptimal dose of 5-FU (1 μM or 5 μM).\n(§3) FIG. 20: Sensitization of colon cancer cells to a long-term suboptimal dose of 5-fluorouracil exposure when combined with VTD. (A-D) (A) HCT-116, (B) LoVo, (C) SW-480, and (D) U2OS were treated with VTD (10-300 μM) for 10 days. […] (E-G) (E) HCT-116, (F) LoVo, and (G) U-2OS were treated with suboptimal doses of 5-FU and VTD (50 and 100 μM) for 10 days. […] (H-I) A series of flow cytometry assays using an antibody against the CD44 cancer stem cell marker illustrated that VTD can target CD44+ colon cancer stem cells and eventually eliminate them in a dose-dependent manner, implicating VTD as a potential cancer stem cell-targeting therapy. (J) Tumor tissue lysates from 48 patients with colon cancer along the matched adjacent normal colon tissue lysates were probed with anti-UBXN2A and anti-Actin antibodies, followed by quantitation and normalization of signals. […] (I) The proposed mechanism action of VTD. VTD increases the expression of UBXN2A, which releases the p53 from mot-2's sequestration and, together with standard chemotherapy, can cause an effective tumor suppression."}, "[3]": {"system": "U2OS", "settings": "10 days", "experimental": "as §1, §2, §3"}, "[4]": {"system": "LoVo", "settings": "10 days", "experimental": "as §1, §2, §3"}, "[5]": {"settings": "VTD 50 or 100 μM plus 5-FU 1 or 5 μM"}}, "data": [{"compound": "COc1ccc(C(=O)O[C@H]2CC[C@@]3(C)[C@@H]4CC[C@H]5[C@]6(O)C[C@H](O)[C@@]7(O)[C@@H](CN8C[C@@H](C)CC[C@H]8[C@@]7(C)O)[C@]6(O)C[C@@]53O[C@]24O)cc1OC", "note": "[VTD, Veratridine]", "values": [{"measurement": "UBXN2A promoter transactivation", "setting": "[1]", "value": "transactivates the UBXN2A promoter"}, {"measurement": "cell viability, long-term exposure", "setting": "[2]; VTD 10-300 μM", "value": "only responded to a high concentration of VTD"}, {"measurement": "cytotoxic effect of suboptimal 5-FU in presence of VTD", "setting": "[2]; [5]", "value": "significantly potentiated the cytotoxic effect of the suboptimal dose of 5-FU"}, {"measurement": "cell viability, long-term exposure", "setting": "[3]; VTD 10-300 μM", "value": "significant decrease in cell viability in a dose-dependent manner"}, {"measurement": "cytotoxic effect of suboptimal 5-FU in presence of VTD", "setting": "[3]; [5]", "value": "significantly potentiated the cytotoxic effect of the suboptimal dose of 5-FU"}, {"measurement": "cell viability, long-term exposure", "setting": "[4]; VTD 10-300 μM", "value": "significant decrease in cell viability in a dose-dependent manner"}, {"measurement": "cytotoxic effect of suboptimal 5-FU in presence of VTD", "setting": "[4]; [5]", "value": "significantly potentiated the cytotoxic effect of the suboptimal dose of 5-FU"}]}]}
